The results in this text go back to US20250171437A1 (Agios Pharmaceuticals,Inc., priority 2022, published 2025).

This assay has as its target T1, human PAH with the R408W mutation (A375 R408W cells) (Homo sapiens, UniProt P00439, R408W).
T1 construct: expressed in transfected cells
T1 sequence (P00439 1-452 R408W): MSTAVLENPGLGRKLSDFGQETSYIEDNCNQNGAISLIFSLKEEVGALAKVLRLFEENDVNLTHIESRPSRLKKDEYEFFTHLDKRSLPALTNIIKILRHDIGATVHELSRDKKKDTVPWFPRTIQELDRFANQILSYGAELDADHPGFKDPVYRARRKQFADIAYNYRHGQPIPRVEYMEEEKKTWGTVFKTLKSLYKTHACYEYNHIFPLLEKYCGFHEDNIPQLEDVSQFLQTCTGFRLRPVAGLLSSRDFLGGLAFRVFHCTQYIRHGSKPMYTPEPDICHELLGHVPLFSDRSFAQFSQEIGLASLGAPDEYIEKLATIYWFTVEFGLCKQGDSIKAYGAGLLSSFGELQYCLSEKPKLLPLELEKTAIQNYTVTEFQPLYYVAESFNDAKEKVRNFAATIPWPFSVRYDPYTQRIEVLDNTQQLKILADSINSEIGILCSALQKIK
Briefly: Cell Based Phenylalanine Flux Assay. To be noted: 24 hrs with compound, then 20 μM sepiapterin and 800 μM 13C9,15N-Phenylalanine for 4 hours, 13C-Tyrosine by LC-MS, average where tested multiple times. The method, boiled down:
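LC-MS quantitation of 13C-tyrosine in media gave AC50 values. Stable A375 R408W PAH cells were preincubated 24 h with compound, then fed 800 μM labelled Phe plus 20 μM sepiapterin for 4 h. Dose curves were 10-point, tested in duplicate, averaged over repeat runs.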

Where [1] appears, read: A375 cells expressing R408W PAH.

Regarding `CN(C)CCCOc1ccc2c(C(=O)N3CCc4[nH]cnc4C3c3nc4cc(F)ccc4o3)cnn2c1` (stereo not shown), the AC50 under setting [1] was 1000 to 5000 nM. As for `O=C(c1ccnn1C(F)F)N1CCc2[nH]cnc2[C@H]1c1nc2cccc(F)c2o1` [Example 195, (S)-(1-(difluoromethyl)-1H-pyrazol-5-yl)(4-(7-fluorobenzo[d]oxazol-2-yl)-6,7-dihydro-1H-imidazo[4,5-c]pyridin-5(4H)-yl)methanone], the AC50 (A375 R408W cells) was at most 500 nM.

In the case of `CC(C)(O)c1ncc(C(=O)N2CCc3[nH]cnc3C2c2nc3ccccc3o2)o1` (stereo not shown), under setting [1], the AC50 was 1000 to 5000 nM. For the molecule `O=C(c1ccnn1C(F)F)N1CCc2[nH]cnc2[C@@H]1c1nc2ccc(F)cc2o1` [Example 190, (R)-(1-(difluoromethyl)-1H-pyrazol-5-yl)(4-(6-fluorobenzo[d]oxazol-2-yl)-6,7-dihydro-1H-imidazo[4,5-c]pyridin-5(4H)-yl)methanone], the AC50 (A375 R408W cells) fell in the range of 1000 to 5000 nM.

Regarding `Cc1ccc2oc(C3c4nc[nH]c4CCN3C(=O)c3cnco3)nc2c1` (stereo not shown), under setting [1], the AC50 lay in the range of 1000 to 5000 nM. Turning to `Cc1cccc2oc([C@@H]3c4nc[nH]c4CCN3C(=O)c3oc(C(C)(C)O)nc3C(F)F)nc12` [Example 361, (S)-(4-(difluoromethyl)-2-(2-hydroxypropan-2-yl)oxazol-5-yl)(4-(4-methylbenzo[d]oxazol-2-yl)-6,7-dihydro-1H-imidazo[4,5-c]pyridin-5(4H)-yl)methanone], under “A375 R408W cells”, the AC50 was at most 500 nM. Still for that read-out and setting: the value for `CC(C)(O)c1nc(C(F)F)c(C(=O)N2CCc3[nH]cnc3[C@H]2c2nc3c(Cl)cccc3o2)o1` [Example 435, [(4S)-4-(4-chloro-1,3-benzoxazol-2-yl)-1,4,6,7-tetrahydroimidazo[4,5-c]pyridin-5-yl]-[4-(difluoromethyl)-2-(1-hydroxy-1-methyl-ethyl)oxazol-5-yl]methanone] was at most 500 nM; that for `Cn1nc(Cl)nc1C(=O)N1CCc2[nH]cnc2[C@@H]1c1nc2cccc(F)c2o1` [Example 284, (R)-(3-chloro-1-methyl-1H-1,2,4-triazol-5-yl)(4-(7-fluorobenzo[d]oxazol-2-yl)-6,7-dihydro-1H-imidazo[4,5-c]pyridin-5(4H)-yl)methanone] was 1000 to 5000 nM. With `O=C(c1cnc(-c2ccccn2)s1)N1CCc2[nH]cnc2C1c1nc2ccc(Br)cc2o1` (stereo not shown), the AC50 under setting [1] lay in the range of 1000 to 5000 nM. As for `CC(C)(O)c1nc(Cl)c(C(=O)N2CCc3[nH]cnc3[C@H]2c2nc3cc(F)ccc3o2)o1` [Example 129, (S)-(4-chloro-2-(2-hydroxypropan-2-yl)oxazol-5-yl)(4-(5-fluorobenzo[d]oxazol-2-yl)-6,7-dihydro-1H-imidazo[4,5-c]pyridin-5(4H)-yl)methanone], under “A375 R408W cells”, the AC50 is 500 to 1000 nM. On the same count and under the same terms, the value for `Cc1cc(F)c2oc([C@H]3c4nc[nH]c4CCN3C(=O)c3ocnc3C(F)F)nc2c1` [Example 502, (R)-(4-(difluoromethyl)oxazol-5-yl)(4-(7-fluoro-5-methylbenzo[d]oxazol-2-yl)-6,7-dihydro-1H-imidazo[4,5-c]pyridin-5(4H)-yl)methanone] was at most 500 nM; that for `Cc1cccc2oc([C@H]3c4nc[nH]c4CCN3C(=O)c3ocnc3C(F)F)nc12` [Example 381, (R)-(4-(difluoromethyl)oxazol-5-yl)(4-(4-methylbenzo[d]oxazol-2-yl)-6,7-dihydro-1H-imidazo[4,5-c]pyridin-5(4H)-yl)methanone] was 1000 to 5000 nM; that for `Cc1nc(C(C)(C)O)oc1C(=O)N1CCc2[nH]cnc2[C@@H]1c1nc2c(F)cccc2o1` [Example 260, (R)-(4-(4-fluorobenzo[d]oxazol-2-yl)-6,7-dihydro-1H-imidazo[4,5-c]pyridin-5(4H)-yl)(2-(2-hydroxypropan-2-yl)-4-methyloxazol-5-yl)methanone] was at least 5000 nM. Same read-out and setting: the value for `Cn1cc(-c2nnc(C(=O)N3CCc4[nH]cnc4[C@H]3c3nc4c(F)cc(F)cc4o3)o2)cn1` [Example 522, (S)-(4-(4,6-difluorobenzo[d]oxazol-2-yl)-6,7-dihydro-1H-imidazo[4,5-c]pyridin-5(4H)-yl)(5-(1-methyl-1H-pyrazol-4-yl)-1,3,4-oxadiazol-2-yl)methanone] was 500 to 1000 nM. As for `COCCNc1nnc(C(=O)N2CCc3[nH]cnc3C2c2nc3cc(F)ccc3o2)o1` (stereo not shown), the AC50 under setting [1] was at least 5000 nM.

Consider `O=C(c1ocnc1C(F)(F)F)N1Cc2[nH]cnc2[C@H]1c1nc2ccccc2o1` [Example 944, (S)-(4-(benzo[d]oxazol-2-yl)-4,6-dihydropyrrolo[3,4-d]imidazol-5(1H)-yl)(4-(trifluoromethyl)oxazol-5-yl)methanone], for which, under “A375 R408W cells”, the AC50 is 1000 to 5000 nM. In the case of `O=C(c1nnc(-c2cnn(C3CCC3)c2)o1)N1CCc2[nH]cnc2[C@@H]1c1nc2c(F)ccc(F)c2o1` [Example 812, (R)-(5-(1-cyclobutyl-1H-pyrazol-4-yl)-1,3,4-oxadiazol-2-yl)(4-(4,7-difluorobenzo[d]oxazol-2-yl)-6,7-dihydro-1H-imidazo[4,5-c]pyridin-5(4H)-yl)methanone], where the note is “A375 R408W cells”, the AC50 lay in the range of 500 to 1000 nM.

On to `O=C(c1ocnc1CC(F)F)N1CCc2[nH]cnc2[C@@H]1c1nc2cc(F)ccc2o1` [Example 866, (R)-(4-(2,2-difluoroethyl)oxazol-5-yl)(4-(5-fluorobenzo[d]oxazol-2-yl)-6,7-dihydro-1H-imidazo[4,5-c]pyridin-5(4H)-yl)methanone], for which, under “A375 R408W cells”, the AC50 lay in the range of 500 to 1000 nM. In the case of `Cc1cc(F)cc2nc([C@H]3c4nc[nH]c4CCN3C(=O)c3ocnc3C(F)F)oc12` [Example 658, (R)-(4-(difluoromethyl)oxazol-5-yl)(4-(5-fluoro-7-methylbenzo[d]oxazol-2-yl)-6,7-dihydro-1H-imidazo[4,5-c]pyridin-5(4H)-yl)methanone], for the setting “A375 R408W cells”, the AC50 was at most 500 nM. For the molecule `CC1CN(C(=O)c2oc(C(C)(C)O)nc2C(F)F)C(c2nc3cc(F)ccc3o2)c2nc[nH]c21` (stereo not shown), the AC50 under setting [1] is 1000 to 5000 nM. Regarding `Cc1ccc2nc([C@H]3c4nc[nH]c4CCN3C(=O)c3nnc(-c4cnn(C)c4)o3)oc2c1` [Example 104, (R)-(5-(1-methyl-1H-pyrazol-4-yl)-1,3,4-oxadiazol-2-yl)(4-(6-methylbenzo[d]oxazol-2-yl)-6,7-dihydro-1H-imidazo[4,5-c]pyridin-5(4H)-yl)methanone], the AC50 (A375 R408W cells) was at least 5000 nM.

As to `Cn1cncc1-c1nc(C(F)F)c(C(=O)N2CCc3[nH]cnc3[C@H]2c2nc3cccc(F)c3o2)o1` [Example 692, (S)-(4-(difluoromethyl)-2-(1-methyl-1H-imidazol-5-yl)oxazol-5-yl)(4-(7-fluorobenzo[d]oxazol-2-yl)-6,7-dihydro-1H-imidazo[4,5-c]pyridin-5(4H)-yl)methanone], for the setting “A375 R408W cells”, the AC50 was at most 500 nM. For the molecule `O=C(c1cnn2cc(Br)c(Cl)cc12)N1CCc2[nH]cnc2[C@@H]1c1nc2cc(F)ccc2o1` [Example 166, (R)-(6-bromo-5-chloropyrazolo[1,5-a]pyridin-3-yl)(4-(5-fluorobenzo[d]oxazol-2-yl)-6,7-dihydro-1H-imidazo[4,5-c]pyridin-5(4H)-yl)methanone], the AC50 (A375 R408W cells) was at least 5000 nM. The same measure, in the same setting: the value for `O=C(CC1CC(F)C1)N1CCc2[nH]cnc2[C@H]1c1nc2cc(F)ccc2o1` (stereo partly drawn) [Example 59, (S)-1-(4-(5-fluorobenzo[d]oxazol-2-yl)-6,7-dihydro-1H-imidazo[4,5-c]pyridin-5(4H)-yl)-2-(3-fluorocyclobutyl)ethanone] was 500 to 1000 nM. Turning to “(R)-(4-(deuterium)-2-(2-hydroxypropan-2-yl)oxazol-5-yl)(4-fluoro-4-(5-fluorobenzo[d]oxazol-2-yl)-6,7-dihydro-1H-imidazo[4,5-c]pyridin-5(4H)-yl)methanone [Example 906]”, where the note is “A375 R408W cells”, the AC50 was at least 5000 nM.
